Measurements published in the supplement of paper PMC11061612.

Assays:
MK-2206 = compound: NC1(c2ccc(-c3nc4ccn5c(=O)[nH]nc5c4cc3-c3ccccc3)cc2)CCC1 [MK-2206]; conditions: max 10 µM
In short: (§1)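 Viability was measured with CellTiter-Glo 2.0 luminescence after 72 hours of dosing at a final DMSO of typically 0.2%, and scaled between blank-well and DMSO-well means. Beforehand, cancer cell lines sat 24 hours at 37°C and 5% CO2 in 1536-well plates in 7.5 μl DMEM/F12 or RPMI with 10% FBS. A non-linear mixed effects model fitted two-parameter logistic curves to the dose responses. The single-agent IC50 comes from these fits.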

AZD2811 = compound: CCN(CCO)CCCOc1ccc2c(Nc3cc(CC(=O)Nc4cccc(F)c4)[nH]n3)ncnc2c1 [AZD2811]; conditions: max 1 µM
In short: as §1

AZD5991 = compound: Cc1c2c(nn1C)CSCc1cc(n(C)n1)CSc1cc(c3ccccc3c1)OCCCc1c(C(=O)O)n(C)c3c-2c(Cl)ccc13 [AZD5991]; conditions: max 1 µM
In short: as §1

Gefitinib = compound: COc1cc2ncnc(Nc3ccc(F)c(Cl)c3)c2cc1OCCCN1CCOCC1 [Gefitinib]; conditions: max 10 µM
In short: as §1

AZD5153 = compound: COc1nnc2ccc(N3CCC(c4ccc(OCCN5CCN(C)C(=O)[C@H]5C)cc4)CC3)nn12 [AZD5153]; conditions: max 1 µM
In short: as §1

SN-38 = compound: CCc1c2c(nc3ccc(O)cc13)-c1cc3c(c(=O)n1C2)COC(=O)[C@]3(O)CC [SN-38]; conditions: max 0.3 µM
In short: as §1

Lapatinib = compound: CS(=O)(=O)CCNCc1ccc(-c2ccc3ncnc(Nc4ccc(OCc5cccc(F)c5)c(Cl)c4)c3c2)o1 [Lapatinib]; conditions: max 10 µM
In short: as §1

Prexasertib = compound: COc1cccc(OCCCN)c1-c1cc(Nc2cnc(C#N)cn2)n[nH]1 [Prexasertib]; conditions: max 1 µM
In short: as §1

Doxorubicin = compound: COc1cccc2c1C(=O)c1c(O)c3c(c(O)c1C2=O)C[C@@](O)(C(=O)CO)C[C@@H]3O[C@H]1C[C@H](N)[C@H](O)[C@H](C)O1 [Doxorubicin]; conditions: max 1 µM
In short: as §1

AZD7648 = compound: Cc1cc2ncnn2cc1Nc1ncc2c(n1)n(C1CCOCC1)c(=O)n2C [AZD7648]; conditions: max 10 µM
In short: as §1

Venetoclax = compound: CC1(C)CCC(CN2CCN(c3ccc(C(=O)NS(=O)(=O)c4ccc(NCC5CCOCC5)c([N+](=O)[O-])c4)c(Oc4cnc5[nH]ccc5c4)c3)CC2)=C(c2ccc(Cl)cc2)C1 [Venetoclax]; conditions: max 1 µM
In short: as §1

Dasatinib = compound: CC1=C(C(=CC=C1)Cl)NC(=O)C2=CN=C(S2)NC3=CC(=NC(=N3)C)N4CCN(CC4)CCO [Dasatinib]; conditions: max 2 µM
In short: as §1

Crizotinib = compound: C[C@@H](Oc1cc(-c2cnn(C3CCNCC3)c2)cnc1N)c1c(Cl)ccc(F)c1Cl [Crizotinib]; conditions: max 10 µM
In short: as §1

Capivasertib = compound: C1CN(CCC1(C(=O)N[C@@H](CCO)C2=CC=C(C=C2)Cl)N)C3=NC=NC4=C3C=CN4 [Capivasertib]; conditions: max 10 µM
In short: as §1

AZD6738 = compound: C[C@@H]1COCCN1C2=NC(=NC(=C2)C3(CC3)[S@](=N)(=O)C)C4=C5C=CNC5=NC=C4 [AZD6738]; conditions: max 10 µM
In short: as §1

Taselisib = compound: Cc1nc(-c2cn3c(n2)-c2ccc(-c4cnn(C(C)(C)C(N)=O)c4)cc2OCC3)n(C(C)C)n1 [Taselisib]; conditions: max 10 µM
In short: as §1

AZD4320 = compound: CN(CC[C@H](CSC1=CC=CC=C1)NC2=C(C=C(C=C2)S(=O)(=O)NC(=O)C3=CC=C(C=C3)N4CCC(CC4)[C@H](C5=CC=CC=C5C6=CC=C(C=C6)Cl)O)S(=O)(=O)C(F)(F)F)CCO [AZD4320]; conditions: max 1 µM
In short: as §1

AZD0156 = compound: CN(C)CCCOc1ccc(-c2ccc3ncc4c(c3c2)n(C2CCOCC2)c(=O)n4C)cn1 [AZD0156]; conditions: max 3 µM
In short: as §1

Savolitinib = compound: C[C@@H](c1ccc2nccn2c1)n1nnc2ncc(-c3cnn(C)c3)nc21 [Savolitinib]; conditions: max 1 µM
In short: as §1

Selumetinib = compound: Cn1cnc2c(F)c(Nc3ccc(Br)cc3Cl)c(C(=O)NOCCO)cc21 [Selumetinib]; conditions: max 10 µM
In short: as §1

Alisertib = compound: COc1cc(Nc2ncc3c(n2)-c2ccc(Cl)cc2C(c2c(F)cccc2OC)=NC3)ccc1C(=O)O [Alisertib]; conditions: max 10 µM
In short: as §1

SG3199 = compound: CC1=CN2[C@@H](C1)C=NC3=CC(=C(C=C3C2=O)OC)OCCCCCOC4=C(C=C5C(=C4)N=C[C@@H]6CC(=CN6C5=O)C)OC [SG3199]; conditions: max 0.001 µM
In short: as §1

AZD1390 = compound: CC(C)n1c(=O)n(C)c2cnc3cc(F)c(-c4ccc(OCCCN5CCCCC5)nc4)cc3c21 [AZD1390]; conditions: max 0.3 µM
In short: as §1

Trametinib = compound: CC(=O)Nc1cccc(-n2c(=O)n(C3CC3)c(=O)c3c(Nc4ccc(I)cc4F)n(C)c(=O)c(C)c32)c1 [Trametinib]; conditions: max 1 µM
In short: as §1

Palbociclib = compound: CC(=O)c1c(C)c2cnc(Nc3ccc(N4CCNCC4)cn3)nc2n(C2CCCC2)c1=O [Palbociclib]; conditions: max 10 µM
In short: as §1

AZD8186 = compound: C[C@@H](Nc1cc(F)cc(F)c1)c1cc(C(=O)N(C)C)cc2c(=O)cc(N3CCOCC3)oc12 [AZD8186]; conditions: max 3 µM
In short: as §1

AZD1775 = compound: C=CCn1c(=O)c2cnc(Nc3ccc(N4CCN(C)CC4)cc3)nc2n1-c1cccc(C(C)(C)O)n1 [AZD1775]; conditions: max 3 µM
In short: as §1

Olaparib = compound: O=C(c1cc(Cc2n[nH]c(=O)c3ccccc23)ccc1F)N1CCN(C(=O)C2CC2)CC1 [Olaparib]; conditions: max 10 µM
In short: as §1

Cell Line | IC50, cell viability 72 h (MK-2206) [nM] | IC50, cell viability 72 h (AZD2811) [nM] | IC50, cell viability 72 h (AZD5991) [nM] | IC50, cell viability 72 h (Gefitinib) [nM] | IC50, cell viability 72 h (AZD5153) [nM] | IC50, cell viability 72 h (SN-38) [nM] | IC50, cell viability 72 h (Lapatinib) [nM] | IC50, cell viability 72 h (Prexasertib) [nM] | IC50, cell viability 72 h (Doxorubicin) [nM] | IC50, cell viability 72 h (AZD7648) [nM] | IC50, cell viability 72 h (Venetoclax) [nM] | IC50, cell viability 72 h (Dasatinib) [nM] | IC50, cell viability 72 h (Crizotinib) [nM] | IC50, cell viability 72 h (Capivasertib) [nM] | IC50, cell viability 72 h (AZD6738) [nM] | IC50, cell viability 72 h (Taselisib) [nM] | IC50, cell viability 72 h (AZD4320) [nM] | IC50, cell viability 72 h (AZD0156) [nM] | IC50, cell viability 72 h (Savolitinib) [nM] | IC50, cell viability 72 h (Selumetinib) [nM] | IC50, cell viability 72 h (Alisertib) [nM] | IC50, cell viability 72 h (SG3199) [nM] | IC50, cell viability 72 h (AZD1390) [nM] | IC50, cell viability 72 h (Trametinib) [nM] | IC50, cell viability 72 h (Palbociclib) [nM] | IC50, cell viability 72 h (AZD8186) [nM] | IC50, cell viability 72 h (AZD1775) [nM] | IC50, cell viability 72 h (Olaparib) [nM]
KYSE-150 (Esophageal Squamous Cell Carcinoma) | > 10000 | > 1000 | > 1000 | > 10000 | 420 | 117 | 3190 | > 1000 | 158 | > 10000 | > 1000 | > 2000 | 4280 | > 10000 | > 10000 | 1340 | > 1000 | > 3000 | > 1000 | > 10000 | 5850 | > 1 | > 300 | 498 | > 10000 | > 3000 | 1150 | > 10000
LOU-NH91 (Squamous Cell Lung Carcinoma) | – | > 1000 | > 1000 | > 10000 | 239 | 17.1 | > 10000 | > 1000 | 542 | > 10000 | > 1000 | 657 | > 10000 | > 10000 | > 10000 | 5870 | > 1000 | > 3000 | > 1000 | > 10000 | > 10000 | > 1 | > 300 | > 1000 | > 10000 | > 3000 | 1350 | > 10000
MFE-319 (Endometrial Carcinoma) | > 10000 | > 1000 | > 1000 | > 10000 | > 1000 | > 300 | > 10000 | 51.5 | > 1000 | > 10000 | > 1000 | > 2000 | > 10000 | > 10000 | 4510 | 9920 | > 1000 | > 3000 | > 1000 | > 10000 | > 10000 | > 1 | > 300 | > 1000 | > 10000 | > 3000 | 740 | > 10000
NCI-H322M (Lung Adenocarcinoma) | – | > 1000 | > 1000 | 816 | 742 | 98.7 | 7360 | 10.6 | 735 | > 10000 | > 1000 | 1960 | > 10000 | > 10000 | 1130 | 692 | > 1000 | > 3000 | > 1000 | 2890 | > 10000 | > 1 | > 300 | 156 | > 10000 | > 3000 | 349 | > 10000
